This is an account of results in patent US3953604A, “1-(2-Substituted-chromonyloxy)-2-hydroxy-3-(substituted phenoxy)propanes” (priority 1973, dated 1976).

Data set [1] deals with passive cutaneous anaphylaxis. In words: passive cutaneous anaphylaxis test (PCA), egg albumin as the antigen: antiallergic activity. The data set is classed as in vivo. As to conditions: iv; rat; injected intravenously together with the antigen; at least 3 groups of 5 rats; read-out: ID50 (dose which reduced the diameter of the wheel by 50%). The procedure:
Compounds representative of the above examples were evaluated for antiallergic activity in the rat by the passive cutaneous anaphylaxis test (hereafter PCA), utilizing egg albumin as the antigen.
(§1) The intensity of such PCA reaction is assessed by measuring the diameters of wheals which develop in the skin of the test animal. Details of the PCA test can be found in the following references: I. Motar, Life Sciences, 1:465 (1963); and B. Ogilvie, Immunology, 12:113 (1967).
In the following table, ID50 is the dose which reduced the diameter of the wheel by 50% when injected intravenously together with the antigen. At least 3 groups of 5 rats were used to determine the ID50 for each compound tested. The reference compound utilized was disodium chromoglycate (DSCG). The test compounds are identified by their respective Example Numbers above.

Data set [2] has as its system passive cutaneous anaphylaxis. In words: duration of antiallergic activity by the PCA test, compared directly with DSCG. It is filed as in vivo. As to conditions: rat; for Mean Reaction Diameters in Milimeters After 25 μ moles/kg of Test Compound: 25 μ moles/kg test compound 10 minutes before egg albumin antigen, groups of 10 animals. The procedure: as §1
The duration of antiallergic activity of compounds representative of the above examples was also determined by the PCA test described in Example 66. In each case, 25 μ moles of the test compound were administered 10 minutes before injection of the egg albumin antigen in rats. The following table reports the mean reactions diameters of wheals in milimeters for the compounds described in the above Examples and disodium cromoglycate (DSCG). In order to achieve maxium significance of results, the effect of each compound was compared directly with DSCG using groups of 10 animals selected at random from the same population.

The nature of data set [3]: acute toxicity tests, intravenous, animals observed for one week. Conditions: in vivo, rat, dose is the maximum possible, limited by solubility, read-out: Therapeutic Ratio (Dose/ID50). The procedure: Acute toxicity of compounds representative of the above Examples was determined in rats. The test compounds were administered intravenously in either 40 ml/kg of physiological saline or […] and saline. Compounds which are insoluble in saline were administered in […] and saline. Doses administered represent the maximun dose possible and are limited by solubility factors. ID50 in the table is used as defined in Example 66. Test compounds are identified by their respective Example Number, above.

The subject of data set [4] is allergic bronchial asthma. As to conditions: in vivo; cited from earlier work.

Several values for one entry are separate records, joined by “and”; a condition that tells them apart may be missing. Identical values can stand only once. Counter-ions that a name gives are not always drawn. Bounds are passed on as bounds.

For `Cc1ccccc1OCC(O)COc1cccc2oc(C(=O)O)cc(=O)c12` (centres unmarked) [Example 19, 1-(2-Carboxychromon-5-yloxy)-2-Hydroxy-3-o-Cresyloxypropane Sodium Salt], the ED50 in data set [1] was 7 µmol/kg. Moreover, in data set [2], the “Mean Reaction Diameters in Milimeters After 25 μ moles/kg of Test Compound” value (“Mean Reaction Diameters … of Test Compound” below) was 10.3 ± 0.2 Milimeters. The selectivity ratio at 168 h in data set [3] is more than 281.
The matching figures for `O=C(O)c1cc(=O)c2c(OCC(O)COc3ccc([N+](=O)[O-])cc3)cccc2o1` (centres unmarked) [Example 38, 1-(2-Carboxychromon-5-yloxy)-2-Hydroxy-3-p-Nitrophenoxypropane Sodium Salt]: 3.6 µmol/kg, 11.2 ± 0.3 Milimeters and more than 173.
For `CC(=O)c1c(O)cccc1OCC(O)COc1cccc(C(F)(F)F)c1` (centres unmarked) [Example 57, 1-(2-Acetyl-3-hydroxphenoxy)-2-Hydroxy-3-(m-trifluoromethylphenoxy) propane], in data set [2], the “Mean Reaction Diameters … of Test Compound” value worked out at 8.4 ± 0.5 Milimeters.
For the compound `O=C(O)c1cc(=O)c2c(OCC(O)COc3cccc4oc(C(=O)O)cc(=O)c34)cccc2o1` [DSCG, 1,3-di(2-carboxy-4-oxochromon-5-yloxy)-2-hydroxy-propane disodium salt, reference compound], the “Mean Reaction Diameters in Milimeters After 25 μ moles/kg of DSCG” value in data set [2] (25 μ moles/kg DSCG 10 minutes before egg albumin antigen, direct comparison with the test compound of the same line, disodium salt) was 13.4 ± 0.3 Milimeters and 10.6 ± 0.7 Milimeters and 9.7 ± 0.3 Milimeters and 8.9 ± 0.8 Milimeters and 8.6 ± 0.3 Milimeters and 12.3 ± 0.2 Milimeters. Further, the selectivity ratio at 168 h in data set [3] is more than 1150. Also, in data set [4], the untoward side effects entry was “several untoward side effects”.
On to `O=C(O)c1cc(=O)c2c(OCC(O)COc3ccc(F)cc3)cccc2o1` (centres unmarked) [Example 65, 1-(2-Carboxychromon-5-yloxy)-2-Hydroxy-3-(p-fluorophenoxy)propane Sodium Salt], for which the “Mean Reaction Diameters … of Test Compound” value in data set [2] turned out to be 12.2 ± 0.2 Milimeters.
As for `CCOC(=O)c1ccc(OCC(O)COc2cccc3oc(C(=O)O)cc(=O)c23)cc1` (centres unmarked) [Example 44, 1-(2-Carboxychromon-5-yloxy)-2-Hydroxy-3-p-Carbethoxyphenoxypropane Sodium Salt], in data set [1], the ED50 stood at 8.25 µmol/kg. Further, in data set [2], the “Mean Reaction Diameters … of Test Compound” value was 6.1 ± 0.4 Milimeters.
Regarding `N#Cc1ccc(OCC(O)COc2cccc3oc(C(=O)O)cc(=O)c23)cc1` (centres unmarked) [Example 35, 1-(2-Carboxychromon-5-yloxy)-2-Hydroxy-3-p-Cyanophenoxypropane Sodium Salt], in data set [1], the ED50 came to 0.75 µmol/kg. Further, the “Mean Reaction Diameters … of Test Compound” value in data set [2] is 8.9 ± 0.7 Milimeters. In addition, in data set [3], the selectivity ratio at 168 h was more than 3170.
For the compound `O=C(O)c1cc(=O)c2c(OCC(O)COc3ccc(Br)cc3)cccc2o1` (centres unmarked) [Example 8, 1-(2-Carboxychromon-5-yloxy)-2-Hydroxy-3-p-Bromophenoxypropane Sodium Salt], the ED50 in data set [1] turned out to be 6.5 µmol/kg. Besides, the “Mean Reaction Diameters … of Test Compound” value in data set [2] is recorded as 6.4 ± 0.4 Milimeters. Besides, in data set [3], the selectivity ratio at 168 h was more than 40.
Take `O=C(O)c1cc(=O)c2c(OCC(O)COc3ccc(Cl)cc3Cl)cccc2o1` (centres unmarked) [Example 62, 1-(2-Carboxychromon-5-yloxy)-2-Hydroxy-3-(2,4-dichlorophenoxy) propane Sodium Salt]: the “Mean Reaction Diameters … of Test Compound” value in data set [2] worked out at 1.3 ± 0.5 Milimeters.
Consider `CCOC(=O)c1cc(=O)c2c(OCC(O)COc3ccc(C#N)cc3)cccc2o1` (centres unmarked) [Example 34, 1-(2-Carbethoxychromon-5-yloxy)-2-Hydroxy-3-p-Cyanophenoxypropane], for which the ED50 in data set [1] was found to be 2.5 µmol/kg. Besides, in data set [3], the selectivity ratio at 168 h is more than 84.
With `O=C(O)c1cc(=O)c2c(OCC(O)COc3ccc(Cl)cc3)cccc2o1` (centres unmarked) [Example 11, 1-(2-Carboxychromon-5-yloxy)-2-Hydroxy-3-p-Chlorophenoxypropane], the ED50 in data set [1] was found to be 5.5 µmol/kg. In addition, in data set [2], the “Mean Reaction Diameters … of Test Compound” value came to 2.8 ± 0.4 Milimeters. For the same compound, in data set [3], the selectivity ratio at 168 h was more than 43.
For `O=C(O)c1cc(=O)c2c(OCC(O)COc3ccccc3)cccc2o1` (centres unmarked) [Example 4, 1-(2-Carboxychromon-5-yloxy)-2-Hydroxy-3-Phenoxypropane Sodium Salt], in data set [1], the ED50 was determined as 6.25 µmol/kg. In addition, in data set [2], the “Mean Reaction Diameters … of Test Compound” value is listed as 13.0 ± 0.3 Milimeters. In data set [3], the selectivity ratio at 168 h is more than 339.
`COc1ccc(OCC(O)COc2cccc3oc(C(=O)O)cc(=O)c23)cc1` (centres unmarked) [Example 15, 1-(2-Carboxychromon-5-yloxy)-2-Hydroxy-3-p-Methoxyphenoxypropane Sodium Salt]: in data set [1], the ED50 came to 20 µmol/kg. Also, the “Mean Reaction Diameters … of Test Compound” value in data set [2] is given as 11.0 ± 0.5 Milimeters. Moreover, the selectivity ratio at 168 h in data set [3] was more than 62.
For the compound `O=C(O)c1cc(=O)c2ccc(OCC(O)COc3ccccc3)cc2o1` (centres unmarked) [Example 41, 1-(2-Carboxychromon-7-yloxy)-2-Hydroxy-3-Phenoxypropane Sodium Salt], the ED50 in data set [1] worked out at 14 µmol/kg.
